Test results published in patent US7311914B2, “MAGE-A4 antigenic peptides and uses thereof” (Ludwig Institute for Cancer Research, priority 2002, dated 2007).

System: CTL F2
Assay: Peptide recognition assay: 51Cr release lysis by CTL F2 of peptide-pulsed autologous EBV-B cells
Type: cell-based, human
Conditions: for lysis by CTL F2 of autologous EBV-B cells incubated with peptide (first screening of 16 amino-acid long peptides, FIG. 3A): 1 μg/ml of each peptide, E:T ratio 5:1, chromium release after 4 h; for EC50: CTL F2, E:T 5:1, 4 h chromium release (FIG. 3B), read-out: peptide concentration giving half maximal lysis of autologous EBV-B target cells; for recognition by CTL F2 of peptides of different lengths (peptide titration, FIG. 3B): autologous EBV-B targets, 3-fold peptide dilutions, HPLC purified peptides; for recognition by CTL F2 of peptides of different lengths (peptide titration, FIG. 3B) / recognition by CTL F2 of targets pulsed with peptides modified at the C-terminus (FIG. 3C): E:T 5:1, 4 h; for recognition by CTL F2 of targets pulsed with peptides modified at the C-terminus (FIG. 3C): very high and most probably not physiological concentration of peptide

## FPVIFGKASESLKMIF (listed as Homo sapiens) [16-mer MAGE-A4 peptide, amino acids 148-163]
  lysis by CTL F2 of autologous EBV-B cells incubated with peptide (first screening of 16 amino-acid long peptides, FIG. 3A): scored positive

## SESLKMIF
  EC50: 1 nM
  recognition by CTL F2 of peptides of different lengths (peptide titration, FIG. 3B): scored positive

## SESLKMIFG (listed as Homo sapiens) [MAGE-A4 nonapeptide]
  recognition by CTL F2 of peptides of different lengths (peptide titration, FIG. 3B): not recognized

## SESLKMIFGI
  EC50: 1 nM
  recognition by CTL F2 of peptides of different lengths (peptide titration, FIG. 3B): scored positive

## SESLKMIFGIDVKEVD (listed as Homo sapiens) [16-mer MAGE-A4 peptide, amino acids 156-171]
  lysis by CTL F2 of autologous EBV-B cells incubated with peptide (first screening of 16 amino-acid long peptides, FIG. 3A): scored positive

## SESLKMIFI (listed as Homo sapiens) [nonapeptide with C-terminal G replaced by I]
  recognition by CTL F2 of targets pulsed with peptides modified at the C-terminus (FIG. 3C): recognized

## SESLKMIFL (listed as Homo sapiens) [nonapeptide with C-terminal G replaced by L]
  recognition by CTL F2 of targets pulsed with peptides modified at the C-terminus (FIG. 3C): recognized
